In data set [1] the target is T1, human SphK2 (Homo sapiens, UniProt Q9NRA0).
T1 construct: full length (wild type hSK2); expressed in transfected cells; host or cells: Saccharomyces cerevisiae CBY169 or KYA1, plasmid pGAL-HsSPHK2
T1 sequence (Q9NRA0 1-618 isoform Q9NRA0-2): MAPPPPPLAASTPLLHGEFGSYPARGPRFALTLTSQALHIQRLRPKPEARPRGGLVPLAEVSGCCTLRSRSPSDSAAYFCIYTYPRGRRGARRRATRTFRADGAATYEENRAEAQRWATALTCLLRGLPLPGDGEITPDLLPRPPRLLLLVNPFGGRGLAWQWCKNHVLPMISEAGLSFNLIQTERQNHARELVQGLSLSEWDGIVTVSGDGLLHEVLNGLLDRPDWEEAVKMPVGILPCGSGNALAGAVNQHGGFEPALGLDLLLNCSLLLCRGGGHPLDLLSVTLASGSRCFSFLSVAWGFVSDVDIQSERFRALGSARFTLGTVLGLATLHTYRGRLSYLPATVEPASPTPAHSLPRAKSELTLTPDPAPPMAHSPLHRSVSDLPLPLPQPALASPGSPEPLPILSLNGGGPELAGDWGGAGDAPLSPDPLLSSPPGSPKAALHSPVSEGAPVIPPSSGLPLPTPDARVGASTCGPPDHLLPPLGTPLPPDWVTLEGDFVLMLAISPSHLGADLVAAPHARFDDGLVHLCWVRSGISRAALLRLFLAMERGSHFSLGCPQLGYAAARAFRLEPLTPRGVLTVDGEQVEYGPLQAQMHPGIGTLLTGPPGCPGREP
Kind of data set: yeast growth rescue assay, strain CBY169 expressing human SphK2. The format is cell-based. The source says: (§1) The plasmids pGAL-HsSPHK1, pGAL-HsSPHK2, pGAL-MmSphk1, pGAL-MmSphk1L277M, pGAL-MmSphk2, pGAL-HsCERK and pGAL-SK2_MOD used in this study were constructed by sub-cloning DNA encoding the indicated translational open reading frames into the pYES2-FLAG-URA expression vector (provided by Dr. Cungui Mao). […] Excepting human and mouse SphK2, the DNA sequences are synthetic (from GeneWiz LLC (South Plainfield, NJ)) and were optimized for expression in S. cerevisiae.

The target in data set [2] is T1, human SphK2. Kind of data set: yeast growth rescue assay, strain KYA1 (PDR5 deleted) expressing human SphK2. Format: cell-based. Particulars: strain KYA1 expressing human SphK2. The source says: The yeast strains used in this study include JS1256 (MATa his3Δ1 leu2Δ0 met15Δ0 ura3Δ0) and CBY169 (MATα leu2-3,112 ura3-52 his4 trp1 rme1 dpl1Δ::TRP1 lcb3Δ::LEU2 lcb4Δ::kanMX lcb5Δ::kanMX) (the latter provided by Kyle Cunningham). The CBY169 strain was modified further by replacement of the PDR5 gene with a selectable marker (confers resistance to clonat) to generate strain KYA1 (MATα leu2-3,112 ura3-52 his4 trp1 rme1 dpl1Δ::TRP1 lcb3Δ::LEU2 lcb4Δ::kanMX lcb5Δ::kanMX pdr5Δ::natMX).
The plasmids pGAL-HsSPHK1, pGAL-HsSPHK2, pGAL-MmSphk1, pGAL-MmSphk1L277M, pGAL-MmSphk2, pGAL-HsCERK and pGAL-SK2_MOD used in this study were constructed by sub-cloning DNA encoding the indicated translational open reading frames into the pYES2-FLAG-URA expression vector (provided by Dr. Cungui Mao). The encoded proteins all have an amino terminal FLAG epitope tag ([…]) and their expression is under the control of the GAL1,10 promoter. Excepting human and mouse SphK2, the DNA sequences are synthetic (from GeneWiz LLC (South Plainfield, NJ)) and were optimized for expression in S. cerevisiae.

The target in data set [3] is T2, human SphK1 (Homo sapiens, UniProt Q9NYA1).
T2 construct: constructed by sub-cloning DNA encoding the indicated translational open reading frames into the pYES2-FLAG-URA expression vector; expressed in transfected cells; host or cells: Saccharomyces cerevisiae CBY169 or KYA1, plasmid pGAL-HsSPHK1
In words: yeast growth rescue assay, strain KYA1 (PDR5 deleted) expressing human SphK1. Format: cell-based.
Text: as §1
(§2) Yeast harboring plasmids were selected and maintained on synthetic complete media lacking uracil (SC-URA) with 2% glucose as the fermentable carbon source. After overnight growth at 30°C in this media, the cultures were diluted 1:100 into SC-URA media supplemented with 2% galactose and various concentrations of test inhibitor. After a further 24–48 hours incubation at 30°C, the extent of growth was assessed by measuring absorbance at 600 nm. […] Tubes were incubated in a rotating drum while plates were agitated using a plate mixer. A600 for 96-well plate cultures was determined using a Molecular Devices SpectraMax M5 plate reader. Test compounds were dissolved in DMSO at 40–50 mM and diluted into water containing 0.1% fatty acid free bovine serum albumin. In all cases, the DMSO concentration in the assay was less than 2% (v/v).

Data set [4] addresses T2, human SphK1. In words: yeast growth rescue assay, strain CBY169 expressing human SphK1. The format is cell-based. Particulars: strain CBY169 expressing human SphK1.
Text: as §1, §2

In a further data set the test system is yeast strain CBY169. Kind of data set: toxicity for yeast (growth of strains without lipid kinase expression). As for the experimental part: as §2
The salient limitations of the yeast assay are those of any cell-based assay. Namely, the assay reports EC50 values rather than Km, Vmax or kcat values of inhibitors, test compounds must not be markedly cytotoxic at the concentrations tested and compounds must accumulate to some extent in the yeast. Cytotoxicity is readily discerned by testing compounds for an effect on growth of strains without lipid kinase expression.

Another data set addresses T3, mouse SphK2 (Mus musculus, UniProt Q9JIA7).
T3 sequence (Q9JIA7 1-617): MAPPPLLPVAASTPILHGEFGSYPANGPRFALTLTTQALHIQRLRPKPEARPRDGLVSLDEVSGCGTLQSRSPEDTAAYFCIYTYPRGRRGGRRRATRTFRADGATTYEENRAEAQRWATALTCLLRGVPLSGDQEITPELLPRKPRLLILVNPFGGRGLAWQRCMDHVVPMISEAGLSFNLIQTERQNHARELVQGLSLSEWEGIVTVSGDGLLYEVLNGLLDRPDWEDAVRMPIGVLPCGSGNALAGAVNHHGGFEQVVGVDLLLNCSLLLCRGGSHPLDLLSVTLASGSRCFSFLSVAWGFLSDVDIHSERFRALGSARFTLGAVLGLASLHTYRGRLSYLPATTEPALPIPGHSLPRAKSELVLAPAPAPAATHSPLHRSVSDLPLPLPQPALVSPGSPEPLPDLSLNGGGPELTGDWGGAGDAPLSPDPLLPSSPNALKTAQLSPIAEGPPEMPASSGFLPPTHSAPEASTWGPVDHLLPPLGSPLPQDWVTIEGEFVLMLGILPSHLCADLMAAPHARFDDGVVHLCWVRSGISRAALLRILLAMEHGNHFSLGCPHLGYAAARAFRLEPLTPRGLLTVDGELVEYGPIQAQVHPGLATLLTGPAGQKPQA
In words: yeast growth rescue assay, mouse SphK2 (CBY169 and KYA1 strains). The format is cell-based. Particulars: both the CBY169 and KYA1 strains.
Text: as §1, §2

Data on one compound can be found in paper PMC5908134, “Saccharomyces cerevisiae as a platform for assessing sphingolipid lipid kinase inhibitors” (PLoS ONE, 2018).

Structures are written as SMILES. Entries after “also recorded” stand apart in the source; their conditions may differ.

T2 sequence (Q9NYA1 whole entry): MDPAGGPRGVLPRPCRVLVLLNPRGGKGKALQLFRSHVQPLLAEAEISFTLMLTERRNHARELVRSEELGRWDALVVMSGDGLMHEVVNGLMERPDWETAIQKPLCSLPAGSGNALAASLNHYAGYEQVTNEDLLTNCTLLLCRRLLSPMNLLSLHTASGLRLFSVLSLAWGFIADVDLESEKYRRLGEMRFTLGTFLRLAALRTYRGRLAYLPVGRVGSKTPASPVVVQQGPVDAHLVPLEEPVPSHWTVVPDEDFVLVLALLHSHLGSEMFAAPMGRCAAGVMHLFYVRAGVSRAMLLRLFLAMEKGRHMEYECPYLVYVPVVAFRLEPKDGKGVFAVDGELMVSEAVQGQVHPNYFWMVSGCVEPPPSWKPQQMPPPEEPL

As for `O=C(NCc1ccncc1)C12CC3CC(C1)CC(c1ccc(Cl)cc1)(C3)C2` [ABC294640], the rescue of growth entry on human SphK2 [1] was “failed to rescue growth; also recorded: failure to detect activity”; on human SphK2 [2], “failed to rescue growth; also recorded: failure to detect activity”; on human SphK2 [2] (concentrations up to 100 μM), “failed to rescue growth”; on human SphK1 [3], “failed to rescue growth”. For the same compound, on human SphK1 [4], the “rescue of growth in galactose media” value is “failed to rescue growth”. The cytotoxicity for yeast result in the data set with yeast strain CBY169 is reported as “not cytotoxic”. Also, the “activity (rescue of growth)” value at mouse SphK2 is listed as “failure to detect activity”.
